Test results taken from patent US20160279110A1, “COMPOSITIONS AND METHODS FOR TREATING CANCER” (UNIVERSITY OF ROCHESTER, priority 2015, published 2016).
Where two headings read alike, the source gives them in different places.

How the values were obtained:
HeLa cells = system: HeLa cells; parameters: reduction in cell viability relative to doxorubicin alone: dose or concentration left out as unconfirmed
Description: Viable cells were quantitated using a Cell Titer Glo assay. […] (d) HeLa cells were plated as in b and exposed to one of three treatments 24 h later—the indicated doxonibicin concentration is provided for 16 h either alone (left histogram) or in the presence of 10 μM NMDI-1 (middle histogram). Alternatively, cells were preincubated with 10 M NMDI-1 for 8 h, washed three times and incubated with the indicated concentrations of doxorubicin for 16 h in the absence of NMDI-1. Viable cells were quantitated as in b. Error bars=S.E.M, *=P<0.05 relative to doxorubicin alone treatment using the Student's t-test. n=4 biological replicates.
Cells were plated in white opaque 96-well plates using multichannel pipettors for accuracy and treated as described in the figure legends. CellTiter-Glo luminescent assays (Promega) were performed according to manufacturer's directions. Data were collected using a SpectraMax M2 plate reader.
First, HeLa cells were challenged with various concentrations of doxorubicin alone. Second, cells were continuously co-incubated for 16 h with doxorubicin and NMDI-1. Third, a transient pulse of NMDI-1 was applied for 8 h, cells were washed to remove NMDI-1, and doxorubicin was then applied.

NMD [1] = experiment: NMD reporter mRNA levels by RT-qPCR in MCF7 cells exposed to NMDI-1; type: cell-based, human
NMD [2] = experiment: NMD reporter mRNA levels (β-Gl Ter, GPx1 Ter) by RT-qPCR in HeLa cells exposed to NMDI-1; type: cell-based, human
Description: Norm encodes a PTCfree version of GPx1 mRNA, whereas Ter encodes mRNA harboring a PTC at codon 46. Cells were re-plated 16 h after transfection at equivalent densities and exposed 24 h later to the indicated concentration of NMDI-1 or, as a positive control for NMD inhibition, cycloheximide (CHX). The levels of β-Gl reporter mRNAs were normalized to the level of the MUP reference mRNA, and the normalized levels of β-Gl Ter mRNA are presented as a percentage of the normalized level of β-Gl Norm mRNA. FIG. 16b is essentially as in a, except GPx1Ter mRNA was analyzed. FIG. 16c is essentially as in b, except MCF7 cells were used. FIG. 16d is essentially as in b, except MCF7 cells were used.
Cells were homogenized, and RNA was purified using RNeasy mini kits (Qiagen). To ensure linearity of both reverse transcription (RT) and qPCR analyses, 17 standard concentrations were constructed using two-fold serial dilutions of total-cell RNA, beginning with 2 μg. Experimental sample input was 200 ng of RNA. RT was conducted using Superscript III (Invitrogen) according to manufacturer's directions and 100 ng of random hexamer (Invitrogen) in a 20 μl reaction volume. Thermal cycling was as follows: 25° C. for 5 min; 42° C. for 60 min; 50° C. for 60 min; and 75° C. for 10 min. Reactions were diluted to a final volume of 80 μl with water and used for qPCR.
qPCR was conducted using FAST SYBR green master mix (ABI; Foster City, Calif.) according to manufacturer's directions. Cycling was done using a 7500 FAST Real Time machine (ABI) with default conditions, and thermal denaturation curves were generated for each run. Primer sequences were as follows, with mRNA primers sets containing at least one primer spanning an exon-exon junction, and pre-mRNA primer sets containing at least one primer that hybridizes to intronic sequences. Primers for Gl mRNA, GPx1 mRNA and MUP mRNA were described in Kurosaki et al.
Therefore, a small-molecule inhibitor of NMD, NMDI-1 (FIG. 8c), that interferes with the interaction between UPF1 and SMG5 was utilized. Application of NMDI-1 and the consequential attenuation of NMD may more fully replicate the complete inhibition of NMD mediated by the UPF1 CP generation explored here as well as UPF1 dephosphorylation and the generation of additional UPF1 CPs seen with doxorubicin (FIG. 1c).

[3] = NMDI-1 at a concentration of 10

Question: For `Cc1c2ccnc(Cl)c2c(C)c2c1[nH]c1ncccc12` [NMDI-1], which “cell viability at sub-lethal doxorubicin” value (HeLa cells; 0.5 μM doxorubicin, doxorubicin alone, co-treatment or pre-treatment with NMDI-1) is on record?
Answer: none of the treatments significantly affected viability

Question: And the “reduction in cell viability relative to doxorubicin alone” value (HeLa cells; NMDI-1 pulse 8 h, washed, then doxorubicin 16 h)?
Answer: ~2.5 fold

Question: What about the “cell viability relative to doxorubicin treatment alone” value (HeLa cells; continuous co-incubation 16 h with doxorubicin and NMDI-1) of the same compound?
Answer: statistically significant decreases in cell viability

Question: And the “effect on NMD in MCF7 cells” value (NMD [1])?
Answer: no effect

Question: What about the “inhibition of NMD in HeLa cells” value (NMD [2]) of the same compound?
Answer: effective in HeLa cells

Question: What about the “raising the level of PTC-bearing glutathione peroxidase 1 (GPx1) mRNA” value (NMD [2]; [3]) of the same compound?
Answer: ~1.6 fold

Question: And the “raising the level of β-Gl Ter mRNA” value (NMD [2]; [3])?
Answer: ~3.8 fold

Question: What about the “inhibition of NMD in HeLa cells” value (NMD [2]; listed as NMD-1) of the same compound?
Answer: potent inhibitor of NMD
